Measurements reported in ChEMBL document CHEMBL3621101 (Medchemcomm, 2014).

Experiment: physchem
Conditions: pH 7

Row | Structure (SMILES) | pKa
1 | c1ccc(CN2CCC(Nc3nc(N4CCCCC4)nc4ccoc34)CC2)cc1 | 5.31
2 | CN1CCCN(c2nc(NC3CCN(Cc4ccccc4)CC3)c3ccsc3n2)CC1 | 3.28
3 | CN1CCN(c2nc(NC3CCN(Cc4ccccc4)CC3)c3ccccc3n2)CC1 | 5.53
4 | CN1CCCN(c2nc3c(c(NC4CCN(Cc5ccccc5)CC4)n2)CCC3)CC1 | 6.62
5 | c1ccc(CN2CCC(Nc3nc(N4CCCCC4)nc4ccsc34)CC2)cc1 | 6.42
6 | CN1CCN(c2nc(NC3CCN(Cc4ccccc4)CC3)c3cc4c(cc3n2)OCO4)CC1 | 5.58
7 | COc1cc2nc(N3CCCN(C)CC3)nc(NC3CCN(Cc4ccccc4)CC3)c2cc1OC | 8.13
8 | c1ccc(CN2CCC(Nc3nc(N4CCN(c5ccccn5)CC4)nc4ccccc34)CC2)cc1 | 8.03
9 | c1ccc(CN2CCC(Nc3nc(N4CCN(c5ccccn5)CC4)nc4ccoc34)CC2)cc1 | 5.77
10 | COc1cc2nc(N3CCN(C)CC3)cc(NC3CCN(Cc4ccccc4)CC3)c2cc1OC | 9.84
11 | c1ccc(CN2CCC(Nc3nc(N4CCCCC4)nc4sccc34)CC2)cc1 | 3.86
12 | COc1cc2nc(N3CCCCC3)nc(NC3CCN(Cc4ccccc4)CC3)c2cc1OC | 7.47
13 | c1ccc(CN2CCC(Nc3nc(N4CCCCC4)nc4ccccc34)CC2)cc1 | 7.4
14 | CN1CCCN(c2nc(NC3CCN(Cc4ccccc4)CC3)c3sccc3n2)CC1 | 5.68
15 | COc1cc2nc(N3CCN(c4ccccn4)CC3)nc(NC3CCN(Cc4ccccc4)CC3)c2cc1OC | 8.1
16 | c1ccc(CN2CCC(Nc3nc(N4CCCCC4)nc4cc5c(cc34)OCO5)CC2)cc1 | 7.45
17 | CN1CCN(c2nc(NC3CCN(Cc4ccccc4)CC3)c3ccsc3n2)CC1 | 3.35
18 | CN1CCCN(c2nc(NC3CCN(Cc4ccccc4)CC3)c3[nH]cnc3n2)CC1 | 3.15
19 | CN1CCCN(c2nc(NC3CCN(Cc4ccccc4)CC3)c3ccccc3n2)CC1 | 8.06
20 | c1ccc(CN2CCC(Nc3nc(N4CCN(c5ccccn5)CC4)nc4cc5c(cc34)OCO5)CC2)cc1 | 8.08
21 | CN1CCCN(c2nc(NC3CCN(Cc4ccccc4)CC3)c3occc3n2)CC1 | 4.57
22 | CN1CCN(c2nc(NC3CCN(Cc4ccccc4)CC3)c3sccc3n2)CC1 | 5.77
23 | c1ccc(CN2CCC(Nc3nc(N4CCN(c5ccccn5)CC4)nc4ccsc34)CC2)cc1 | 6.88
24 | COc1cc2nc(N3CCN(C)CC3)nc(NC3CCN(Cc4ccccc4)CC3)c2cc1OC | 5.6
25 | CN1CCN(c2nc(NC3CCN(Cc4ccccc4)CC3)c3occc3n2)CC1 | 4.66
26 | COc1cc2nc(N3CCCN(C)CC3)cc(NC3CCN(Cc4ccccc4)CC3)c2cc1OC | 10.6
27 | c1ccc(CN2CCC(Nc3nc(N4CCCCC4)nc4nc[nH]c34)CC2)cc1 | 3.73
